Laboratory results from DBAASP.
≈ marks a conversion by molar mass, not a printed value. One block for each compound: values may come before it.

Columns and labels:
Assay in all cases: ≥ marks a high value that may be exact or a test limit, other limits are often not marked, values filed in µg/mL are converted to µM
[1] = test system: Candida albicans ATCC 18804
[2] = test system: Escherichia coli ATCC 25922
[3] = test system: Staphylococcus aureus ATCC 25923
[4] = test system: Bacillus megaterium KCTC 1096
[5] = test system: Bacillus subtilis KCTC 1918
[6] = test system: Escherichia coli KCTC 1682
Proteus vulgaris = test system: Proteus vulgaris
[7] = test system: Pseudomonas aeruginosa KCTC 1637
[8] = test system: Staphylococcus aureus KCTC 1621
[9] = test system: Acinetobacter calcoaceticus Ac11
Bacillus megaterium Bm11 = test system: Bacillus megaterium Bm11
[10] = test system: Bacillus subtilis ATCC 6051
Escherichia coli D21 = test system: Escherichia coli D21
[11] = test system: Micrococcus luteus ATCC 9341
[12] = test system: Pseudomonas aeruginosa ATCC 27853
[13] = test system: Salmonella enterica subsp. enterica serovar Typhimurium LT2
Candida albicans = test system: Candida albicans
[14] = test system: Enterococcus faecalis ATCC 29212
Escherichia coli DC2 = test system: Escherichia coli DC2
Escherichia coli KF130 = test system: Escherichia coli KF130
Escherichia coli UB1005 = test system: Escherichia coli UB1005
[15] = test system: Pseudomonas aeruginosa H374
[16] = test system: Pseudomonas aeruginosa H744
[17] = test system: Pseudomonas aeruginosa PAO1
[18] = test system: Salmonella enterica subsp. enterica serovar Typhimurium ATCC 14028s
[19] = test system: Staphylococcus aureus R147
[20] = test system: Staphylococcus aureus SAP 0017
[21] = test system: Staphylococcus epidermidis
[22] = test system: Acinetobacter baumannii ATCC 19606
Acinetobacter baumannii = test system: Acinetobacter baumannii
[23] = test system: Bacillus subtilis DSM 4181
Burkholderia cepacia = test system: Burkholderia cepacia
Escherichia coli BW25113 = test system: Escherichia coli BW25113
Escherichia coli HB101 = test system: Escherichia coli HB101
Escherichia coli J2210 = test system: Escherichia coli J2210
Escherichia coli JJ2489 = test system: Escherichia coli JJ2489
Escherichia coli JW0013 = test system: Escherichia coli JW0013
[24] = test system: Escherichia coli JW0368 ΔsbmA
[25] = test system: Escherichia coli JW2778 ΔygdD
Escherichia coli MC1041 = test system: Escherichia coli MC1041
Escherichia coli ML-35 = test system: Escherichia coli ML-35
Escherichia coli = test system: Escherichia coli
[26] = test system: Klebsiella pneumoniae ATCC 700603
Klebsiella pneumoniae = test system: Klebsiella pneumoniae
Pseudomonas aeruginosa = test system: Pseudomonas aeruginosa
[27] = test system: Salmonella enterica serovar Typhimurium
[28] = test system: Salmonella enterica subsp. enterica serovar Enteritidis MH91989
[29] = test system: Salmonella enterica subsp. enterica serovar Typhimurium ATCC 14028
[30] = test system: Salmonella typhimurium SL1344
[31] = test system: Serratia marcescens ATCC 8100
[32] = test system: Staphylococcus epidermidis ATCC 12228
[33] = test system: Stenotrophomonas maltophilia ATCC 13637

Structure (SMILES): CC[C@H](C)[C@H](NC(=O)[C@H](C)NC(=O)[C@H](CCC(=O)O)NC(=O)[C@H](CO)NC(=O)[C@H](Cc1ccccc1)NC(=O)[C@H](CCCCN)NC(=O)[C@H](Cc1ccccc1)NC(=O)[C@H](CO)NC(=O)[C@H](CCC(=O)O)NC(=O)[C@H](C)NC(=O)[C@@H](NC(=O)[C@H](CCCCN)NC(=O)[C@H](CCCCN)NC(=O)[C@@H](NC(=O)[C@@H](NC(=O)[C@H](CC(=O)O)NC(=O)[C@H](Cc1ccccc1)NC(=O)[C@H](CC(C)C)NC(=O)CN)[C@@H](C)CC)[C@@H](C)CC)[C@@H](C)CC)C(=O)N[C@@H](CCCCN)C(=O)N[C@@H](CCCCN)C(=O)N[C@H](C(=O)N[C@H](C(=O)N[C@@H](CC(=O)O)C(=O)N[C@@H](Cc1ccccc1)C(=O)N[C@@H](CC(C)C)C(=O)NCC(=O)O)[C@@H](C)CC)[C@@H](C)CC [GLFDIIKKIAESFKFSEAIKKIIDFLG]
MIC [1]: ≥ 128 µM
MIC [2]: 128 µM (≈ 393 µg/mL)
MIC [3]: > 128 µM

Structure (SMILES): CC[C@H](C)[C@H](NC(=O)[C@H](CCCCN)NC(=O)[C@H](CCCCN)NC(=O)[C@H](Cc1ccccc1)NC(=O)[C@H](CC(C)C)NC(=O)[C@H](CCCCN)NC(=O)[C@H](Cc1c[nH]c2ccccc12)NC(=O)[C@@H](N)CCCCN)C(=O)N1CCC[C@H]1C(=O)N[C@@H](Cc1cnc[nH]1)C(=O)N[C@@H](CC(C)C)C(=O)N[C@@H](C)C(=O)N[C@@H](CCCCN)C(=O)N[C@@H](CCCCN)C(=O)N[C@@H](Cc1ccccc1)C(N)=O [KWKLFKKIPHLAKKF]
MIC [4]: 3.12 µM (≈ 5.97 µg/mL)
MIC [5]: 0.78 µM (≈ 1.49 µg/mL)
MIC [6]: 12.5 µM (≈ 23.9 µg/mL)
MIC (Proteus vulgaris): 1.56 µM (≈ 2.98 µg/mL)
MIC [7]: 12.5 µM (≈ 23.9 µg/mL)
MIC [8]: 6.25 µM (≈ 11.9 µg/mL)

Structure (SMILES): CC[C@H](C)[C@H](NC(=O)[C@H](CCCCN)NC(=O)[C@@H]1CCCN1C(=O)[C@@H](NC(=O)[C@H](CC(C)C)NC(=O)[C@H](C)NC(=O)[C@H](Cc1ccccc1)NC(=O)[C@H](Cc1ccccc1)NC(=O)CN)[C@@H](C)CC)C(=O)N[C@H](C(=O)N[C@@H](CO)C(=O)O)[C@@H](C)CC [GFFALIPKIIS]
MIC [9]: ≥ 100 µM
MIC (Bacillus megaterium Bm11): ≥ 100 µM
MIC [10]: ≥ 100 µM
MIC (Escherichia coli D21): ≥ 100 µM
MIC [11]: ≥ 100 µM
MIC [12]: > 100 µM
MIC [13]: ≥ 100 µM

The next lines start with the values.

MIC (Candida albicans): 0.765 µM (≈ 2 µg/mL)
MIC [14]: 0.191 µM (≈ 0.499 µg/mL)
MIC (Escherichia coli DC2): 0.0956 µM (≈ 0.25 µg/mL)
MIC (Escherichia coli KF130): 0.0956 µM (≈ 0.25 µg/mL)
MIC (Escherichia coli UB1005): 0.0956 µM (≈ 0.25 µg/mL)
MIC [15]: 0.191 µM (≈ 0.499 µg/mL)
MIC [16]: 0.382 µM (≈ 0.998 µg/mL)
MIC [17]: 0.382 µM (≈ 0.998 µg/mL)
MIC [18]: 0.191 µM (≈ 0.499 µg/mL)
MIC [3]: 0.382 µM (≈ 0.998 µg/mL)
MIC [19]: 0.382 µM (≈ 0.998 µg/mL)
MIC [20]: 0.382 µM (≈ 0.998 µg/mL)
MIC [21]: 0.0956 µM (≈ 0.25 µg/mL)
Structure (SMILES): CC(C)[C@@H]1NC(=O)[C@H](CCCN=C(N)N)NC(=O)[C@H](Cc2ccccc2)NC(=O)[C@@H](NC(=O)[C@H](Cc2c[nH]c3ccccc23)NC(=O)[C@H](CCCN=C(N)N)NC(=O)[C@@H](N)CCCN=C(N)N)CSSC[C@@H](C(=O)N[C@@H](CCCN=C(N)N)C(N)=O)NC(=O)[C@H](CCCCN)NC(=O)[C@H](CCCN=C(N)N)NC(=O)[C@H](Cc2ccc(O)cc2)NC(=O)[C@@H]2CSSC[C@H](NC1=O)C(=O)N[C@@H](Cc1ccc(O)cc1)C(=O)N[C@@H](CCCN=C(N)N)C(=O)NCC(=O)N[C@@H](CCCN=C(N)N)C(=O)N[C@@H](Cc1ccccc1)C(=O)N2 [RRWCFRVCYRGRFCYRKCR]

MIC [22]: 32 µM (≈ 66.4 µg/mL)
MIC (Acinetobacter baumannii): 5.66 µM (≈ 11.7 µg/mL)
MIC [23]: 1 µM (≈ 2.08 µg/mL)
MIC (Burkholderia cepacia): ≥ 128 µM
MIC [14]: > 64 µM
MIC [2]: 1 µM (≈ 2.08 µg/mL)
MIC (Escherichia coli BW25113): 0.06 µM (≈ 0.125 µg/mL)
MIC (Escherichia coli HB101): 0.5 µM (≈ 1.04 µg/mL)
MIC (Escherichia coli J2210): 0.12 µM (≈ 0.249 µg/mL)
MIC (Escherichia coli JJ2489): 0.12 µM (≈ 0.249 µg/mL)
MIC (Escherichia coli JW0013): 0.06 µM (≈ 0.125 µg/mL)
MIC [24]: 0.06 µM (≈ 0.125 µg/mL)
MIC [25]: 0.083 µM (≈ 0.172 µg/mL)
MIC (Escherichia coli MC1041): 0.06 µM (≈ 0.125 µg/mL)
MIC (Escherichia coli ML-35): 2 µM (≈ 4.15 µg/mL)
MIC (Escherichia coli): 8 µM (≈ 16.6 µg/mL)
MIC [26]: 4 µM (≈ 8.31 µg/mL)
MIC (Klebsiella pneumoniae): 4 µM (≈ 8.31 µg/mL)
MIC [12]: > 64 µM
MIC (Pseudomonas aeruginosa): 90.5 µM (≈ 188 µg/mL)
MIC [27]: 1 µM (≈ 2.08 µg/mL)
MIC [28]: 0.12 µM (≈ 0.249 µg/mL)
MIC [29]: 1 µM (≈ 2.08 µg/mL)
MIC [30]: 0.06 µM (≈ 0.125 µg/mL)
MIC [31]: 8 µM (≈ 16.6 µg/mL)
MIC [3]: > 128 µM
MIC [32]: > 64 µM
MIC [33]: ≥ 64 µM
Structure (SMILES): CC[C@H](C)[C@H](NC(=O)[C@H](CCCN=C(N)N)NC(=O)[C@@H](N)CCCN=C(N)N)C(=O)N[C@@H](CCCN=C(N)N)C(=O)N1CCC[C@H]1C(=O)N[C@@H](CCCN=C(N)N)C(=O)N1CCC[C@H]1C(=O)N1CCC[C@H]1C(=O)N[C@@H](CCCN=C(N)N)C(=O)N[C@@H](CC(C)C)C(=O)N1CCC[C@H]1C(=O)N[C@@H](CCCN=C(N)N)C(=O)N1CCC[C@H]1C(=O)N[C@@H](CCCN=C(N)N)C(=O)N1CCC[C@H]1C(=O)N[C@@H](CCCN=C(N)N)C(=O)O [RRIRPRPPRLPRPRPR]
